According to PMC12522199 (RSC Advances, 2025):

Target: HamA (Burkholderia cenocepacia, UniProt A0A144VC93)
Experiment: microscale thermophoresis
Assay type: binding

Q: With `O=C(O)CCC(=O)C(=O)O` [2-oxoglutarate] as the molecule, how does the Kd read?
A: The Kd was 208 ± 1.42 µM.
